Experimental data from patent US20050009787A1, “Micronutrient phosphates as dietary and health supplements” (priority 2001, published 2005).
One block for each compound: values may come before it.

Assays:
[1] = Bioavailability of tocopheryl phosphate in rats (tocopheryl phosphate in liver, ES/MS); format: in vivo, male Sprague-Dawley rats; conditions: rat
Protocol: The rats were dosed using the following protocol: • (a) A single dose of the compound was administered to male Sprague-Dawley rats (see Table 1). Oral gavage was with an 18 g gavage needle and 1 ml syringe. Intravenous was with a 26 g hypodermic needle and 1 ml syringe. • (b) Twenty four hours after administrations, the rats were anaesthetized with 60 mg/kg of Nembutal (an anaesthetic from Meril, USA) by intra peritoneal injection. • (c) Once the rats were under deep anaesthesia, a sample of blood was taken from the tail vein, and the femoral vein was exposed and injected with 500 units of heparin. The abdominal cavity was opened and the rat perfused with saline. The liver, heart, epidydimal fat pad, hind-leg muscle and brain was removed and frozen in liquid nitrogen.
The livers were extracted according to the following method: • (a) Homogenise 1 g of liver in 10 ml dichloromethane. • (b) Add 0.1 mg of ditocopheryl phosphate (1 mg/ml in 50% tetrahydrofuran) as an internal standard. • (c) Mix using homogeniser and centrifuge sample. • (d) Remove and evaporate dichloromethane. • (e) Add 9 ml of KOH (2M) and stir for one hour at room temperature. • (f) Add 10 ml hexane, shake and remove hexane (upper) layer. • (g) Add 10 ml HCl (2M) to the 9 ml KOH (2M) solution. • (h) Add 10 ml hexane, shake and remove hexane layer. • (i) Evaporate hexane layer to dryness.
The extracts were analysed and quantitated for TP (μg) content by electrospray mass spectrometry using the established calibration curve (tocopheryl phosphate vs ditocopheryl phosphate).
ES/MS analysis conditions: Sample was dissolved in 1 ml tetrahydrofuran (THF) containing 1% ammonia, 20 μl was injected into the sample loop. The sample was eluted with THF:water (9:1) 20 μl/min. Mass spectrometric analysis was conducted in negative ion mode with cone voltage of 40V using Micromass Platform.

[2] = Stability of tocopheryl phosphate arginine complex in a beverage (pH, turbidity, degradation); format: physicochemical
Protocol: Four ml was added to each 500 ml bottle using sterile conditions. Three treatment groups were used for each drink: 4° C., 37° C. and room temperature (RT). The drinks were monitored for bacterial growth and contamination on a weekly basis, both visually, and by plating a sample onto LB agar plates, which were grown for 48 hours at 37° C.

[3] = cited from earlier work

- amount of tocopheryl phosphate detected in the livers ([1]; enteric coating preparation or oral solution): increase
- amount of tocopheryl phosphate present in the liver after 24 hours ([1]; intravenous administration, vs controls): significant increase
- Tocopheryl phosphate in liver ([1]; intravenous, 10 mg/kg single dose, 24 h after administration): 24.0 µg/g
- Tocopheryl phosphate in liver ([1]; intravenous, 30 mg/kg single dose, 24 h): 28.0 µg/g
- Tocopheryl phosphate in liver ([1]; oral (enteric coated), 30 mg/kg single dose, 24 h): 19.3 µg/g
- Tocopheryl phosphate in liver ([1]; oral, 10 mg/kg single dose, 24 h): 19.2 µg/g
- Tocopheryl phosphate in liver ([1]; oral, 30 mg/kg single dose, 24 h): 18.4 µg/g
Compound: Tocopheryl phosphate

- amount of tocopheryl phosphate present compared to the controls ([1]; oral administration): did not result in a significant increase
Compound: CC(=O)Oc1c(C)c(C)c2c(c1C)CCC(C)(CCC[C@H](C)CCC[C@H](C)CCCC(C)C)O2 (some centres unmarked) [Tocopheryl acetate, reference compound]

Compound: tocopheryl phosphate arginine complex
- Turbidity ([2]; blue Musashi drink with TP, 4° C.): 12.54 NTU
- Turbidity ([2]; blue Musashi drink with TP, 37° C.): 28.55 NTU
- Turbidity ([2]; blue Musashi drink with TP, RT): 24.05 NTU
- amount of degradation of the complex ([2]; in acidic drinks, at the pH required for biological stability): negligible
- Turbidity ([2]; orange Musashi drink with TP, 4° C.): 232.0 NTU
- Turbidity ([2]; orange Musashi drink with TP, 37° C.): 220.0 NTU
- Turbidity ([2]; orange Musashi drink with TP, RT): 224.0 NTU

Compound: COC1=C(OC)C(=O)C(C/C=C(\C)CC/C=C(\C)CC/C=C(\C)CC/C=C(\C)CC/C=C(\C)CC/C=C(\C)CC/C=C(\C)CC/C=C(\C)CC/C=C(\C)CCC=C(C)C)=C(C)C1=O [CoQ10, ubiquinone]
- destruction of CoQ10 by boiling ([3]; boiling): no detectable destruction
- destruction of CoQ10 by frying ([3]; frying): 14-32%
